According to patent US11925629B2, “Heterocyclic inhibitors of ERK1 and ERK2 and their use in the treatment of cancer” (Asana Biosciences, LLC, priority 2015, dated 2024):
Like-named read-outs stand apart in the source and are kept apart here.

Columns and labels:
[1] = system: HCT116 (colorectal carcinoma, K Ras G13D) cells; assay: Cell proliferation (Alamar Blue) assay, HCT116; format: cell-based, human
Procedure, shortened: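 After overnight plating (16-24 h), cells were treated for 72 h with compound dilutions spanning roughly 0.0005 to 10 uM. Proliferation was measured by Alamar Blue fluorescence and IC50 values derived from variable-slope dose-response curves.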

[2] = system: phosphorylation of RSK1(S380) (the downstream target of ERK1/2); assay: Phospho-RSK1(S380) ELISA assay in HT-29 cells; format: cell-based, human; settings: phospho-RSK1(S380), read-out: Mechanistic Cell Assay RSK1 Phos HT29 IC50
Protocol: Phospho-RSK1(S380) ELISA Assay
HT-29 cells (colorectal carcinoma, B-RafV600E); obtained from ATCC, USA) were seeded (60,000 cells/well) in a 96-well plate and incubated at 37° C./5% CO2 overnight and then treated with desired compound dilutions for 2 h. Medium was removed and cells were rinsed once with ice-cold 1×PBS, then 0.070 mL ice-cold 1× cell lysis buffer containing 1 mM PMSF was added to each well and the plate was incubated on a shaker for 2 h and 30 min at 4° C. The plate was then centrifuged for 20 min (×4000 rpm) at 4° C. and the supernatant was transferred to a new plate. Cell lysates were diluted with sample diluent at a ratio of 1:1. The ELISA was then carried out following the manufacturer's protocol (PathScan® phospho-RSK1(Ser380) Sandwich ELISA Kit, Cell Signaling Technologies). The plate was read at 450 nm within 30 min after adding STOP solution. The IC50 values were subsequently determined using a sigmoidal dose-response curve (variable slope) in GraphPad Prism® 5 software.

[3] = Homo sapiens, HCT-116, HCT116 cells
[4] = Homo sapiens, HT-29, HT29 cells

| SMILES | IC50 ([1]; HCT116 cells) | IC50 ([2]; HT29 cells) | IC50 [1, 3] | IC50 [2, 4] |
| --- | --- | --- | --- | --- |
| Cc1cnc(NC2CCC(F)(F)CC2)nc1-n1cnc(C(=O)N[C@H](CO)c2cccc(Cl)c2)c1 [Example 240, (S)-N-(1-(3-chlorophenyl)-2-hydroxyethyl)-1-(2-((4,4-difluorocyclohexyl)amino)-5-methylpyrimidin-4-yl)-1H-imidazole-4-carboxamide] | – | – | 250 to 500 nM | 100 to 250 nM |
| Cc1cnc(NC2CCOCC2)nc1-n1cnc(C(=O)NCc2ccccc2CCO)c1 [Example 243, N-(2-(2-hydroxyethyl)benzyl)-1-(5-methyl-2-((tetrahydro-2H-pyran-4-yl)amino)pyrimidin-4-yl)-1H-imidazole-4-carboxamide] | > 2500 nM | – | – | 500 to 2500 nM |
| Cc1cnc(NC2CCOCC2)nc1-n1cnc(C(=O)N[C@]2(c3cccc(Cl)c3)C[C@@H](O)C2)c1 [Example 245, N-((1s,3s)-1-(3-chlorophenyl)-3-hydroxycyclobutyl)-1-(5-methyl-2-((tetrahydro-2H-4-yl)amino)pyrimidin-4-yl)-1H-imidazole-4-carboxamide] | – | – | 500 to 2500 nM | 250 to 500 nM |
| Cc1cnc(NC2CCOc3ccccc32)nc1-n1cnc(C(=O)N[C@H](CO)c2cccc(Cl)c2)c1 (stereo partly drawn) [Example 247, N-((S)-1-(3-chlorophenyl)-2-hydroxyethyl)-1-(2-(chroman-4-ylamino)-5-methylpyrimidin-4-yl)-1H-imidazole-4-carboxamide] | – | – | > 2500 nM | ≤ 100 nM |
| Cc1cnc(NC2CCOC(C)C2)nc1-n1cnc(C(=O)N[C@H](CO)c2cccc(Cl)c2)c1 (stereo partly drawn) [Example 251, N-((S)-1-(3-chlorophenyl)-2-hydroxyethyl)-1-(5-methyl-2-((2-methyltetrahydro-2H-pyran-4-yl)amino)pyrimidin-4-yl)-1H-imidazole-4-carboxamide] | – | – | 250 to 500 nM | ≤ 100 nM |
| Cc1cnc(NC2CCOCC2)nc1-n1cnc(C(=O)NC(CO)c2ccc(Cl)s2)c1 (stereo not drawn) [Example 257, N-(1-(5-chlorothiophen-2-yl)-2-hydroxyethyl)-1-(5-methyl-2-((tetrahydro-2H-pyran-4-yl)amino)pyrimidin-4-yl)-1H-imidazole-4-carboxamide] | – | – | > 2500 nM | 250 to 500 nM |
| Cc1cnc(NC2CCOCC2)nc1-n1cnc(C(=O)NC(CO)c2cccc(C(C)(C)C)c2)c1 (stereo not drawn) [Example 258, N-(1-(3-(tert-butyl)phenyl)-2-hydroxyethyl)-1-(5-methyl-2-((tetrahydro-2H-pyran-4-yl)amino)pyrimidin-4-yl)-1H-imidazole-4-carboxamide] | – | – | 500 to 2500 nM | 250 to 500 nM |
| Cc1cnc(NC(CO)CO)nc1-n1cnc(C(=O)N[C@H](CO)c2cccc(Cl)c2)c1 [Example 260, (S)-N-(1-(3-chlorophenyl)-2-hydroxyethyl)-1-(2-((1,3-dihydroxypropan-2-yl)amino)-5-methylpyrimidin-4-yl)-1H-imidazole-4-carboxamide] | – | – | > 2500 nM | > 2500 nM |
| Cc1ccc(C(CO)NC(=O)c2cn(-c3nc(NC4CCOCC4)ncc3C)cn2)s1 (stereo not drawn) [Example 261, N-(2-hydroxy-1-(5-methylthiophen-2-yl)ethyl)-1-(5-methyl-2-((tetrahydro-2H-pyran-4-yl)amino)pyrimidin-4-yl)-1H-imidazole-4-carboxamide] | – | – | > 2500 nM | 500 to 2500 nM |

More lines, now with the values ahead:

| IC50 ([1]; HCT116 cells) | IC50 ([2]; HT29 cells) | IC50 [1, 3] | IC50 [2, 4] | SMILES |
| --- | --- | --- | --- | --- |
| 500 to 2500 nM | 500 to 2500 nM | – | – | Cc1cnc(NC2CCOCC2)nc1-n1cnc(C(=O)NCc2ccccc2CCO)c1 [Example 94, N-(2-(2-hydroxy-ethyl)benzyl)-1-(5-methyl-2-((tetrahydro-2H-pyran-4-yl)amino)pyrimidin-4-yl)-1H-imidazole-4-carboxamide] |
| – | – | > 2500 nM | ≤ 100 nM | Cc1cnc(NC2CCOCC2)nc1-n1cnc(C(=O)NC(CO)c2cccs2)c1 (stereo not drawn) [Example 233, N-(2-hydroxy-1-(thiophen-2-yl)ethyl)-1-(5-methyl-2-((tetrahydro-2H-pyran-4-yl)amino)pyrimidin-4-yl)-1H-imidazole-4-carboxamide] |
| – | – | 100 to 250 nM | 100 to 250 nM | Cc1cnc(NC2CCOC2)nc1-n1cnc(C(=O)NC(CN)c2cccc(Cl)c2)c1 (stereo not drawn) [Example 235, N-(2-amino-1-(3-chlorophenyl)ethyl)-1-(5-methyl-2-((tetrahydrofuran-3-yl)amino)pyrimidin-4-yl)-1H-imidazole-4-carboxamide] |
| – | – | > 2500 nM | 250 to 500 nM | Cc1cnc(NC2CCOCC2)nc1-n1cnc(C(=O)NC(CO)c2cccc(C(F)(F)F)c2)c1 (stereo not drawn) [Example 237, N-(2-hydroxy-1-(3-(trifluoromethyl)phenyl)ethyl)-1-(5-methyl-2-((tetrahydro-2H-pyran-4-yl)amino)pyrimidin-4-yl)-1H-imidazole-4-carboxamide] |
| – | – | 500 to 2500 nM | 250 to 500 nM | Cc1cccc(C(CO)NC(=O)c2cn(-c3nc(NC4CCOCC4)ncc3C)cn2)c1 (stereo not drawn) [Example 238, N-(2-hydroxy-1-(m-tolyl)ethyl)-1-(5-methyl-2-((tetrahydro-2H-pyran-4-yl)amino)pyrimidin-4-yl)-1H-imidazole-4-carboxamide] |
| – | – | > 2500 nM | 250 to 500 nM | Cc1cnc(Nc2ccc(F)cc2Cl)nc1-n1cnc(C(=O)N[C@H](CO)c2cccc(Cl)c2)c1 [Example 241, (S)-1-(2-((2-chloro-4-fluorophenyl)amino)-5-methylpyrimidin-4-yl)-N-(1-(3-chlorophenyl)-2-hydroxyethyl)-1H-imidazole-4-carboxamide] |
| – | – | 500 to 2500 nM | 250 to 500 nM | Cc1cnc(N[C@H]2CC[C@@H](O)CC2)nc1-n1cnc(C(=O)N[C@H](CO)c2cccc(Cl)c2)c1 [Example 242, N-((S)-1-(3-chlorophenyl)-2-hydroxyethyl)-1-(2-(((1r,4S)-4-hydroxycyclohexyl)amino)-5-methylpyrimidin-4-yl)-1H-imidazole-4-carboxamide] |
| – | – | > 2500 nM | > 2500 nM | Cc1cnc(NC2CCS(=O)(=O)C2)nc1-n1cnc(C(=O)N[C@H](CO)c2cccc(Cl)c2)c1 (stereo partly drawn) [Example 246, N-((S)-1-(3-chlorophenyl)-2-hydroxyethyl)-1-(2-((1,1-dioxidotetrahydrothiophen-3-yl)amino)-5-methylpyrimidin-4-yl)-1H-imidazole-4-carboxamide] |
| – | – | ≤ 100 nM | 100 to 250 nM | Cc1cnc(Nc2ccc(F)cc2)nc1-n1cnc(C(=O)N[C@H](CN)c2cccc(Cl)c2)c1 [Example 248, (S)-N-(2-amino-1-(3-chlorophenyl)ethyl)-1-(2-((4-fluorophenyl)amino)-5-methylpyrimidin-4-yl)-1H-imidazole-4-carboxamide] |
| – | – | 500 to 2500 nM | 500 to 2500 nM | Cc1cnc(Nc2ccc(F)cc2)nc1-n1cnc(C(=O)N[C@@H](CN)c2cccc(Cl)c2)c1 [Example 249, (R)-N-(2-amino-1-(3-chlorophenyl)ethyl)-1-(2-((4-fluorophenyl)amino)-5-methylpyrimidin-4-yl)-1H-imidazole-4-carboxamide] |
| – | – | ≤ 100 nM | ≤ 100 nM | Cc1cnc(Nc2ccc(F)c(N3CCOCC3)c2)nc1-n1cnc(C(=O)NC(CN)c2cccc(Cl)c2)c1 (stereo not drawn) [Example 256, N-(2-amino-1-(3-chlorophenyl)ethyl)-1-(2-((4-fluoro-3-morpholinophenyl)amino)-5-methylpyrimidin-4-yl)-1H-imidazole-4-carboxamide] |
| – | – | 500 to 2500 nM | ≤ 100 nM | Cc1cnc(Nc2ccc(F)cc2)nc1-n1cnc(C(=O)NCc2cccc(Cl)c2CO)c1 [Example 262, N-(3-chloro-2-(hydroxymethyl)benzyl)-1-(2-((4-fluorophenyl)amino)-5-methylpyrimidin-4-yl)-1H-imidazole-4-carboxamide] |
